Measurements: patent publication EP3324923B1, “COMPOSITIONS AND METHODS USING PALYTHINE” (King's College London, priority 2015, dated 2017)

Tested on: HaCaT keratinocytes
Experiment: Single-cell gel electrophoresis (comet assay) of UV-induced DNA damage
Assay type: cell-based, human
Settings: for percentage change in % DNA in the tail in protected cells compared to unprotected cells: n=3, t-test; for Mean % DNA Damage: 10J/cm^2 UVA
Experimental: This measurement is based on the comet assay (single cell gel electrophoresis) which detects damage to nuclear DNA that result from nucleotide excision repair (NER) and nucleotide photooxidation. Using the lesion specific enzymes T4N5 that recognizes CPD and hOGG1 that recognizes 8-oxoGua, palythine was tested by comparing pure palythine compound with naturally occurring amphoteric MAA mixtures to that of industry accepted sun-filter controls.
Powdered sunscreens were dissolved in PBS (Sigma-Aldrich, UK) at a concentration in which they can dissolve fully (0-0.3%). They were then applied (200ul/well) to wells of a 24 well plate containing a washed monolayer of cells. Cells were then irradiated and the sunscreen removed and washed post treatment.
Irradiation was carried out on cells in monolayers at a distance of 3 cm (Solar Simulator) in cold PBS or PBS + sunscreen. The plate was always placed on a cooling platform at 4°C to avoid overheating of the cells. Unirradiated samples were maintained in PBS for the same time and temperature as irradiated samples.
DNA damage was measured using the comet assay, using lesion specific enzymes to determine the type of damaged produced.
Glass slides are pre-coated with 1% agarose and allowed to dry. Cells were treated with UV +/- sunscreens. Positive controls were treated with ice cold 0.03% Hydrogen Peroxide for 5 minutes, negative controls were kept in the same conditions as the treatments without UV exposure.
After treatment cells were scraped gently with a cell scraper in EDTA solution to help dissociate cells and stop clumping. The cells (40ul) were then added to low melting point (LMP) agarose (160ul) and gently mixed. The final concentration of cells in the LMP agarose was 10,000 cells/100ul of agarose. Then 100ul of the agarose-cell solution was pipetted onto the pre-coated slides and a cover slip was placed onto the gels and left to set for 5-10 minutes then removed. Two replicates were placed on each slide. All steps were carried out on a cooled platform at 4°C. Slides were then places into lysis buffer (2.5M NaCl, 100mM EDTA, 10mM TRIS, 1% sodium sarcosinate, 1% Triton x-100, 10% DMSO) overnight at 4°C in the dark.
Slides were then washed in ice-cold ddH2O (2x5 mins) in the dark and once in ice cold enzyme reaction buffer (0.4mM HEPES, imMKCl, 0.005mM EDTA, 0.02mg/ml BSA) for 5 minutes. After this step different lesions were detected using lesion specific enzymes.
Cylcobutane pyrimidine dimers were measured using the T4 endonuclease V (T4endoV) enzyme. After washing, 50ul of enzyme diluted in reaction buffer (hOGG1- 3.2U/ml, T4EndoV - 0.1U/ml) or reaction buffer alone were added to each gel, a cover slip placed on top and left in a humidity chamber in the dark at 37°C for 45 minutes.
After enzyme treatment coverslips were removed and transferred into ice-cold electrophoresis buffer (10mM NaOH, 200mM EDTA, pH13 in ddH2O) and incubated at 4°C in the dark for 20 minutes. Electrophoresis was then carried out in fresh electrophoresis buffer for 25 minutes at 25V (1V/cm) 300mA, at 4°C in the dark. Slides were then washed in neutralisation buffer (0.4M TRIS, pH7.5) for 2x 10 minutes, and then in ddH2O for 2x 5 minutes and slides were allowed to dry overnight.
The DNA embedded in the slides was stained using Propidium Iodide solution (2.5ug/ml in PBS), 50ul of the solution was added to each gel and cover slip placed over. The slides were then analysed on a Zeiss Axiophot epifluorescence microscope (Carl Zeiss, Germany), with a green excitation filter (536nm) detected with a red emission at 617nm. Pictures covering the whole gel were taken, avoiding the outer edges, using a Nikon camera at a magnification of 10x. The images were then analysed using Comet Score Pro software (Tritek Corp, Summerduck, VA), typically scoring 150 individual comets per condition. […]

COC1=C(NCC(=O)O)CC(O)(CO)CC1=N (stereo not shown) [palythine]
improved protection from DNA damage (0.3% palythine (48% damage) versus Gelyma composition at 4% (76% damage)): 58.33%
DNA damage (0.3% palythine, from the applicant's data): 48%
percentage change in % DNA in the tail in protected cells compared to unprotected cells (5J/cm^2 solar simulated UVR, 0.3% palythine, figure 9): significant protection
percentage change in % DNA in the tail in protected cells compared to unprotected cells (20J/cm^2 UVA, 0.3% palythine, figure 10): significant protection
Mean % DNA Damage (No Enzyme (single strand breaks / alkali labile sites), 0.1% palythine in PBS, mean percentage of tail DNA, n=1): 14.263%
Mean % DNA Damage (No Enzyme (single strand breaks / alkali labile sites), 0.3% palythine in PBS, mean percentage of tail DNA, n=1): 9.914%
Mean % DNA Damage (T4N5 (cyclobutane pyrimidine dimers, CPDs), 0.1% palythine): 26.328%
Mean % DNA Damage (T4N5 (cyclobutane pyrimidine dimers, CPDs), 0.3% palythine): 15.345%
protection for the DNA lesions tested (general damage, CPD and 8oxoGua) (comet assay and IHC-IF, palythine at 0.3% or greater, UVA and SSR induced damage, p=<0.05): significant protection
DNA damage caused by UVA and UVB exposure (lesion specific enzymes T4N5 (CPD) and hOGG1 (8-oxoGua)): significantly reduces DNA damage
